According to paper PMC5607274, “An iterative compound screening contest method for identifying target protein inhibitors using the tyrosine-protein kinase Yes” (Scientific Reports, 2017):

Target: T1, human recombinant Yes [a.a. 2–543 (end)] (Homo sapiens, UniProt P07947)
T1 construct: human recombinant Yes [a.a; 2–543 (end)]; purchased BPS Bioscience 40488
Assay: ADP-Glo kinase assay, inhibition rates of Yes phosphorylation activity (first and second screening)
Format: biochemical
Details: 10 μmol L−1 compound; for First screening IR (inhibition rate): mean of n = 4 wells; for Second screening IR (inhibition rate): dissolved from fresh powder, n = 4
In short: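 ADP-Glo luminescence measured inhibition of human recombinant Yes (a.a. 2–543) phosphorylation activity. In the first screen, each compound ran in 4 wells and inhibition rates were averaged. The second screen retested hits as compounds dissolved from fresh powder.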

T1 sequence (P07947 2-543): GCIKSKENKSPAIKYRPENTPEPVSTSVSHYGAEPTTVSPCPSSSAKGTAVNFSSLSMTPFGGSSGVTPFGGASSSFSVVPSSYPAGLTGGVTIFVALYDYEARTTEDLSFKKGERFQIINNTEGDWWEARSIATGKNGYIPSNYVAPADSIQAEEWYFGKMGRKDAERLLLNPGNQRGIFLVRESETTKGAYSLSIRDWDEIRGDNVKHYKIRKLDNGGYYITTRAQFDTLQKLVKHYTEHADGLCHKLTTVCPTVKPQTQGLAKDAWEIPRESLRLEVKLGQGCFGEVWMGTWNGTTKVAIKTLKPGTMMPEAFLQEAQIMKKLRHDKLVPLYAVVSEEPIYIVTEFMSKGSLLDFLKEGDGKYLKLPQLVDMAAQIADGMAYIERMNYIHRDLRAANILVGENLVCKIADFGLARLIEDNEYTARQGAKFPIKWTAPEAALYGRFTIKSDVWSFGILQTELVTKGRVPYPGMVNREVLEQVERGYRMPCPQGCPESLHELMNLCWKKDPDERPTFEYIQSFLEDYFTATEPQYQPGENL

| Compound | First screening IR (inhibition rate) [%] | Second screening IR (inhibition rate) [%] |
| --- | --- | --- |
| CCOC(=O)c1sc(-c2cccc([N+](=O)[O-])c2)cc1NC(=O)CCc1ccccc1 [Compound Z29956667] | -1 |  |
| COc1ccc(S(=O)(=O)NCC(=O)OCC(=O)Nc2ccc(Cl)c(C(F)(F)F)c2)cc1 [Compound Z24395276] | 8 |  |
| O=C(NCCSCc1ccccc1)Nc1ccc(NC(=O)c2ccco2)cc1 [Compound Z412775020] | 44 | -16 |
| COc1ccc(/C(O)=C2\C(=O)C(=O)N(CCCn3ccnc3)C2c2cccnc2)cc1OC (stereo not shown) [Compound Z335452550] | -9 |  |
| CCS(=O)(=O)N1CCN(S(=O)(=O)C2CCS(=O)(=O)C2)CC1 (stereo not shown) [Compound Z805634984] | 2 |  |
| CN(C)c1ccc(CNC(=O)N2CCN(C3=NS(=O)(=O)c4ccccc43)CC2)cc1 [Compound Z449089632] | 1 |  |
| CCc1ccc(/C=C2/CN(C)Cc3c2nc2ccccc2c3C(=O)O)cc1 [Compound Z46114754] | 0 |  |
| Cc1ccc(CSCC(=O)NC(Cc2ncc[nH]2)c2ccccc2)cc1 (stereo not shown) [Compound Z230096354] | 28 |  |
| Cn1c(=O)[nH]c(=O)c2c1nc(CN1CCN(c3cccc(Cl)c3)CC1)n2CCCc1ccccc1 [Compound Z238883342] | -1 |  |
| CN(CC(=O)Nc1ccccc1Cl)C(=O)COC(=O)c1c2c(nc3ccccc13)CCC(C(C)(C)C)C2 (stereo not shown) [Compound Z19182299] | -2 |  |
| Cc1c(N=C2SC(CC(=O)Nc3ccc(F)cc3)C(=O)N2CC2CCCCC2)c(=O)n(-c2ccccc2)n1C (stereo not shown) [Compound Z56900652] | 8 |  |
| O=S(=O)(c1c(Cl)cccc1Cl)N1CCN(Cc2nc3ccccc3s2)CC1 [Compound Z45503858] | 3 |  |
| CCOC(=O)c1ccc(-n2c(O)c(C=NCc3ccccn3)c3ccccc3c2=O)cc1 [Compound Z31275874] | -12 |  |
| CC(NC(=O)C(C)N1CCCN(Cc2ccc(C#N)cc2)CC1)c1ccccc1 (stereo not shown) [Compound Z229381330] | -12 |  |
| CCN(CC)S(=O)(=O)c1ccc(Cl)c(NC(=O)COC(=O)c2cc(-c3ccc4cc(OC)ccc4c3)nc3ccccc23)c1 [Compound Z18792611] | -19 |  |
| O=C(Nc1ccc(S(=O)(=O)Nc2nccs2)cc1)c1cnn(Cc2ccccc2)c1 [Compound Z100622740] | 61 |  |
| O=C(Nc1ccc(N2CCCCC2)c(S(=O)(=O)Nc2ccc(Cl)cc2)c1)c1ccc(S(=O)(=O)NCc2ccco2)cc1 [Compound Z32729001] | -5 |  |

| Compound | First screening IR (inhibition rate) [%] | Second screening IR (inhibition rate) [%] |
| --- | --- | --- |
| Cc1cc(C)n(C(C)C(=O)Nc2ccc(NC(=O)C(C)(C)C)cc2Cl)n1 (stereo not shown) [Compound Z850607168] | 3 |  |
| COc1ccc2c(c1)CC/C(=C\c1ccc(Cl)c(Cl)c1)C2=O [Compound Z46584361] | 30 |  |
| O=C(Nc1cccc(C#Cc2cccs2)c1)C1CC2CCCC(C1)C2=O (stereo not shown) [Compound Z271080962] | -2 |  |
| CN1N=C(C(=O)N2CCN(S(=O)(=O)c3ccccc3C(F)(F)F)CC2)CCC1=O [Compound Z164780402] | 7 |  |
| Cc1cc(C(=O)CSc2nnc(-c3ccc4c(c3)OCO4)n2-c2ccccc2)c(C)n1C [Compound Z16254213] | 6 |  |
| CC1C/C(=C/c2ccccc2[N+](=O)[O-])c2nc3ccccc3c(C(=O)O)c2C1 (stereo not shown) [Compound Z46107814] | 10 |  |
| Cc1ccc(S(=O)(=O)C2CS(=O)(=O)CC2O)c(C)c1 (stereo not shown) [Compound Z1549639934] | -1 |  |
| O=C(OCc1ccc(-n2ccnc2)nc1)c1ccc([N+](=O)[O-])cc1 [Compound Z1352068858] | 7 |  |
| CS(=O)(=O)c1cccc(S(N)(=O)=O)c1 [Compound Z299680982] | 5 |  |
| CC(C)(C)n1ncc2c(NCCc3nnc4n3CCCC4)ncnc21 [Compound Z1661117530] | 7 |  |
| Cc1c(-c2ccc(OC(F)F)cc2)nc2ccccc2c1-c1ccccc1.Cl [Compound Z48951073] | 4 |  |
| NC(=O)Nc1ccc(-c2csc(CCc3ccccc3)n2)cc1 [Compound Z785638578] | 0 |  |
| CCN1CCCN(S(=O)(=O)c2ccccc2S(C)(=O)=O)CC1 [Compound Z1127188257] | 43 |  |
| CCC(NC(=O)c1cc2c(cc1Cl)N1CCCCCC1=NS2(=O)=O)c1ccc(C)cc1 (stereo not shown) [Compound Z28877665] | 2 |  |
| CC1C/C(=C/c2ccc(C#N)cc2)c2nc3ccccc3c(C(=O)O)c2C1 (stereo not shown) [Compound Z46107862] | -2 |  |
| O=C(OCc1nc(-c2cccs2)no1)c1ccc2ccccc2n1 [Compound Z51170832] | 19 |  |

The next lines start with the values.

| First screening IR (inhibition rate) [%] | Second screening IR (inhibition rate) [%] | Compound |
| --- | --- | --- |
| 9 |  | Cc1ccc(OCCSCc2nc(N)nc(Nc3ccc(F)cc3)n2)cc1 [Compound Z135099694] |
| 7 |  | COc1cc(Br)c(CN(C)CCc2cnccn2)c(OC)c1 [Compound Z1632805805] |
| 11 |  | O=C(Nn1cnc2ccccc21)c1cnn(-c2ccccc2F)c1-n1cccc1 [Compound Z339292340] |
| 4 |  | Brc1ccc2nc(CNCc3cnc(-c4ccccc4)nc3)cn2c1 [Compound Z736057568] |
| 6 |  | O=C1NC(c2ccc(OCc3cn4ccccc4n3)cc2)Nc2ccccc21 (stereo not shown) [Compound Z135163592] |
| 3 |  | COc1ccc(-c2noc(/C=C/c3cncc(O)c3)n2)cc1 [Compound Z1642148255] |
| 10 |  | Cl.Fc1ccc(-c2nc3ccc(Cl)cc3c(-c3ccccc3)c2CCCl)cc1 [Compound Z48950878] |
| -5 |  | CCN(CCNC(=O)c1[nH]c2c(c1C)C(=O)CCC2)c1cccc(C)c1 [Compound Z188949814] |
| 36 |  | Cc1ccccc1-c1nc(SCc2cn3cc(Cl)ccc3n2)n[nH]1 [Compound Z221422064] |
| 20 |  | Cc1cc(C)n(-c2ccc(Cl)c(C(=O)OCC(=O)c3ccc(F)c(F)c3)n2)n1 [Compound Z15431588] |
| -38 |  | CC(NCc1ccc(C(=O)Nc2ccccc2)cc1)c1ccc2c(c1)OCCO2 (stereo not shown) [Compound Z89008298] |
| -4 |  | COc1ccc(-c2cc(CSCC(=O)Nc3ccc4c(c3)CCC4)on2)cc1 [Compound Z317186982] |
| -5 |  | Cc1nc(CN)ccc1C(=O)Nc1ccc(Oc2ccc(Cl)cc2Cl)c(F)c1.Cl [Compound Z1561183584] |
| 3 |  | Brc1ccc(/C=C2/CCCc3c2nc2ncnn2c3-c2ccc(Br)cc2)cc1 [Compound Z56784274] |
| 3 |  | CNc1nc(NC2CCOC2c2ccc(F)c(F)c2)ncc1Br (stereo not shown) [Compound Z1765170433] |
| 2 |  | N#CCCn1ncc2c(NCc3ccc4c(c3)OCCO4)ncnc21 [Compound Z990838348] |
| 13 |  | CNC1CCN(C(=O)c2ccc3c(c2)ncn3C(C)C)C1.Cl.Cl (stereo not shown) [Compound Z1455845707] |
| -13 |  | Cc1ccc(SCc2nc(N)nc(Nc3ccccc3C)n2)cc1C [Compound Z24835676] |

| First screening IR (inhibition rate) [%] | Second screening IR (inhibition rate) [%] | Compound |
| --- | --- | --- |
| 11 |  | CNS(=O)(=O)c1ccc(NC(=O)c2cn(-c3ccccc3)nc2-c2cccnc2)cc1 [Compound Z101840388] |
| 43 |  | Fc1ccc(-c2cc(-c3ccc(Cl)cc3)c3ccccc3n2)cc1 [Compound Z1270166647] |
| 12 |  | CC(C)n1ncc2c(C(=O)N(C)CC(=O)Nc3ccc(F)c(F)c3F)cc(-c3ccccc3)nc21 [Compound Z51761022] |
| 3 |  | O=S(=O)(Nc1cnc2ccccc2c1)c1ccc(Cl)c(Cl)c1 [Compound Z246801514] |
| -36 |  | O=C(c1ccc(Nc2nccc(C(F)(F)F)n2)cc1)N1CCCC1 [Compound Z319025642] |
| 3 |  | O=C(COc1ccccc1F)NCc1ccc2[nH]c(=O)[nH]c2c1 [Compound Z1654002148] |
| -10 |  | c1ccc(-c2nc(NCc3ccc(-n4cncn4)cc3)no2)cc1 [Compound Z1722673239] |
| -2 |  | O=C(Cc1cccc(F)c1)NNC(=O)Cn1c(COc2ccc(Cl)cc2)nc2ccccc21 [Compound Z31930719] |
| -13 |  | Cc1ccnc(Nc2nc3ccccc3s2)n1 [Compound Z57289339] |
| 46 |  | COc1cc(NC(=O)c2ccccc2)c(OC)cc1NC(=O)COc1ccc(-c2nnco2)cc1 [Compound Z62746884] |
| 66 | 12 | COC(=O)c1sc2ncc(/C=C/C(=O)c3cccnc3)cc2c1C [Compound Z871886494] |
| 8 |  | Fc1ccc(/C=C2/CCCc3c2nc2ncnn2c3-c2ccc(F)cc2)cc1 [Compound Z56784264] |
| -1 |  | O=S(=O)(c1ccc(Br)cc1Cl)N1CCN(Cc2cn3ccccc3n2)CC1 [Compound Z89065969] |
| -9 |  | N#Cc1c(CN2CCN(S(=O)(=O)c3cc(Cl)ccc3Cl)CC2)cn2ccccc12 [Compound Z220381008] |
| 9 |  | CN(CCCc1nc2ccccc2[nH]1)C(=O)c1ccc(O)cc1F [Compound Z1614685203] |
| -2 |  | NC(=O)c1ccc(COc2ccc(I)cc2)c(F)c1 [Compound Z816021628] |
| -2 |  | Cc1ccc(NC(=O)C(=O)c2c(-c3ccccc3)cc3ccccn23)cc1S(=O)(=O)N1CCOCC1 [Compound Z56835405] |
